Measurements published in ChEMBL document CHEMBL5143637, “Design, synthesis and antibacterial activity against pathogenic mycobacteria of conjugated hydroxamic acids, hydrazides and O-alkyl/O-acyl protected hydroxamic derivatives” (Bioorg Med Chem Lett, 2022).
Values after ≈ are worked out from the molar mass of the structure shown.

Experiments:
[1] = test system: Mycobacteroides abscessus; test: Antimycobacterial activity against Mycobacterium abscessus CIP104536T with smooth morphotype assessed as inhibition of mycobacterial growth incubated for 3 to 5 days by resazurin microtiter assay; format: functional; conditions: time 3-5 day
[2] = test system: Mycobacteroides abscessus; test: Antimycobacterial activity against Mycobacterium abscessus CIP104536T with rough morphotype assessed as inhibition of mycobacterial growth incubated for 3 to 5 days by resazurin microtiter assay; format: functional; conditions: time 3-5 day
Mycobacterium marinum = test: Antimycobacterial activity against Mycobacterium marinum ATCC BAA-535/M assessed as inhibition of mycobacterial growth incubated for 10 to 14 days by resazurin microtiter assay; format: functional; conditions: time 10-14 day
[3] = test system: Mycobacterium tuberculosis; test: Antimycobacterial activity against Mycobacterium tuberculosis mc2 6230 assessed as inhibition of mycobacterial growth incubated for 10 to 14 days by resazurin microtiter assay; format: functional; conditions: time 10-14 day
[4] = Cytotoxicity against C57BL/6 mouse BMDM cells assessed as reduction in cell viability measured after 24 hrs by resazurin dye based assay; format: toxicity; conditions: C57BL/6, mouse, BMDM cells (bone marrow-derived macrophages)

Compound	MIC50 [1]	MIC50 [2]	MIC50 (Mycobacterium marinum)	MIC90 (Mycobacterium marinum)	MIC50 [3]	CC50 at 24 h [4]	MIC90 [3]	MIC90 [1]	MIC90 [2]
O=C(/C=C/C=C/c1ccc(F)cc1)NO	> 100 µg/mL	> 100 µg/mL	18.1 µg/mL (≈ 87.4 µM)	> 100 µg/mL	> 100 µg/mL	< 10 µg/mL	–	–	–
O=C(/C=C/c1ccc(-c2ccccc2)cc1)NO	> 100 µg/mL	> 100 µg/mL	20.8 µg/mL (≈ 86.9 µM)	68.6 µg/mL (≈ 287 µM)	20.6 µg/mL (≈ 86.1 µM)	16 µg/mL (≈ 66.9 µM)	> 100 µg/mL	–	–
CCCCOc1ccc(/C=C/C=C/C(=O)NN)cc1	> 100 µg/mL	> 100 µg/mL	> 100 µg/mL	–	> 100 µg/mL	65 µg/mL (≈ 250 µM)	–	–	–
COc1ccc(/C=C/C=C/C(=O)NN)cc1	> 100 µg/mL	> 100 µg/mL	12.6 µg/mL (≈ 57.7 µM)	13.3 µg/mL (≈ 60.9 µM)	18.1 µg/mL (≈ 82.9 µM)	120 µg/mL (≈ 550 µM)	46.7 µg/mL (≈ 214 µM)	–	–
O=C(/C=C/C=C/c1cccc(C(F)(F)F)c1)NO	52.3 µg/mL (≈ 203 µM)	4.4 µg/mL (≈ 17.1 µM)	10.1 µg/mL (≈ 39.3 µM)	> 100 µg/mL	50.5 µg/mL (≈ 196 µM)	< 10 µg/mL	> 100 µg/mL	> 100 µg/mL	7 µg/mL (≈ 27.2 µM)
CCCCCCCCCC(=O)ONC(=O)/C=C/C=C/c1ccc(F)cc1	> 100 µg/mL	> 100 µg/mL	13.2 µg/mL (≈ 36.5 µM)	17.3 µg/mL (≈ 47.9 µM)	20.3 µg/mL (≈ 56.2 µM)	> 125 µg/mL	34.7 µg/mL (≈ 96 µM)	–	–
O=C(/C=C/c1cccc(C(F)(F)F)c1)NO	72.5 µg/mL (≈ 314 µM)	7.8 µg/mL (≈ 33.7 µM)	7.1 µg/mL (≈ 30.7 µM)	47.7 µg/mL (≈ 206 µM)	12.8 µg/mL (≈ 55.4 µM)	< 10 µg/mL	> 100 µg/mL	74.8 µg/mL (≈ 324 µM)	16 µg/mL (≈ 69.2 µM)
O=C(/C=C/c1ccc2c(c1)OCO2)NO	> 100 µg/mL	> 100 µg/mL	> 100 µg/mL	–	31.9 µg/mL (≈ 154 µM)	34 µg/mL (≈ 164 µM)	> 100 µg/mL	–	–
O=C(/C=C/C=C/c1ccncc1)NO	> 100 µg/mL	> 100 µg/mL	26.9 µg/mL (≈ 141 µM)	> 100 µg/mL	19.4 µg/mL (≈ 102 µM)	< 10 µg/mL	27.6 µg/mL (≈ 145 µM)	–	–
O=C(/C=C/c1cccc(F)c1)NO	12.2 µg/mL (≈ 67.3 µM)	7.6 µg/mL (≈ 42 µM)	3.3 µg/mL (≈ 18.2 µM)	25.9 µg/mL (≈ 143 µM)	13.5 µg/mL (≈ 74.5 µM)	< 10 µg/mL	> 100 µg/mL	> 100 µg/mL	68.4 µg/mL (≈ 378 µM)
NNC(=O)/C=C/C=C/c1cccc(F)c1	> 100 µg/mL	> 100 µg/mL	> 100 µg/mL	–	> 100 µg/mL	> 125 µg/mL	–	–	–
CCCC(=O)ONC(=O)/C=C/C=C/c1ccc(F)cc1	> 100 µg/mL	> 100 µg/mL	7.9 µg/mL (≈ 28.5 µM)	22.4 µg/mL (≈ 80.8 µM)	11.9 µg/mL (≈ 42.9 µM)	> 125 µg/mL	59.3 µg/mL (≈ 214 µM)	–	–
CCCCCCCOc1ccc(/C=C/C=C/C(=O)NN)cc1	26.6 µg/mL (≈ 88 µM)	9.7 µg/mL (≈ 32.1 µM)	> 100 µg/mL	–	27 µg/mL (≈ 89.3 µM)	64 µg/mL (≈ 212 µM)	29.1 µg/mL (≈ 96.2 µM)	> 100 µg/mL	26.1 µg/mL (≈ 86.3 µM)
CCCCCC(=O)ONC(=O)/C=C/C=C/c1ccc(F)cc1	> 100 µg/mL	> 100 µg/mL	19.8 µg/mL (≈ 64.8 µM)	92.9 µg/mL (≈ 304 µM)	21.6 µg/mL (≈ 70.7 µM)	< 10 µg/mL	40.7 µg/mL (≈ 133 µM)	–	–
O=C(/C=C/c1ccncc1)NO	> 100 µg/mL	> 100 µg/mL	75 µg/mL (≈ 457 µM)	> 100 µg/mL	35.1 µg/mL (≈ 214 µM)	< 10 µg/mL	42.9 µg/mL (≈ 261 µM)	–	–
CCCCCCONC(=O)/C=C/C=C/c1ccc(F)cc1	> 100 µg/mL	> 100 µg/mL	37.1 µg/mL (≈ 127 µM)	> 100 µg/mL	> 100 µg/mL	> 125 µg/mL	–	–	–
NNC(=O)/C=C/c1cccc(C(F)(F)F)c1	> 100 µg/mL	51.4 µg/mL (≈ 223 µM)	> 100 µg/mL	–	40.5 µg/mL (≈ 176 µM)	> 125 µg/mL	65.7 µg/mL (≈ 285 µM)	–	55.7 µg/mL (≈ 242 µM)
O=C(/C=C/c1ccc(F)cc1)NO	> 100 µg/mL	> 100 µg/mL	3.5 µg/mL (≈ 19.3 µM)	23.9 µg/mL (≈ 132 µM)	47.3 µg/mL (≈ 261 µM)	< 10 µg/mL	55.4 µg/mL (≈ 306 µM)	–	–
O=C(/C=C/C=C/c1ccc(C(F)(F)F)cc1)NO	> 100 µg/mL	5.5 µg/mL (≈ 21.4 µM)	> 100 µg/mL	–	28.8 µg/mL (≈ 112 µM)	< 10 µg/mL	80.6 µg/mL (≈ 313 µM)	–	10.9 µg/mL (≈ 42.4 µM)
COc1ccc(/C=C/C(=O)NO)cc1	> 100 µg/mL	> 100 µg/mL	58.2 µg/mL (≈ 301 µM)	89.5 µg/mL (≈ 463 µM)	23.1 µg/mL (≈ 120 µM)	< 10 µg/mL	24.3 µg/mL (≈ 126 µM)	–	–

Compound	MIC50 [1]	MIC50 [2]	MIC50 (Mycobacterium marinum)	MIC90 (Mycobacterium marinum)	MIC50 [3]	CC50 at 24 h [4]	MIC90 [3]	MIC90 [1]	MIC90 [2]
COc1ccc(/C=C/C=C/C(=O)NO)cc1	> 100 µg/mL	> 100 µg/mL	14.8 µg/mL (≈ 67.5 µM)	62.1 µg/mL (≈ 283 µM)	48 µg/mL (≈ 219 µM)	< 10 µg/mL	> 100 µg/mL	–	–
O=C(/C=C/C=C/c1ccccc1)NO	> 100 µg/mL	> 100 µg/mL	14.9 µg/mL (≈ 78.7 µM)	91.4 µg/mL (≈ 483 µM)	> 100 µg/mL	< 10 µg/mL	–	–	–
NNC(=O)/C=C/c1ccc(C(F)(F)F)cc1	> 100 µg/mL	46 µg/mL (≈ 200 µM)	> 100 µg/mL	–	20.4 µg/mL (≈ 88.6 µM)	> 125 µg/mL	44.2 µg/mL (≈ 192 µM)	–	46.8 µg/mL (≈ 203 µM)
O=C(CCc1ccccc1)NO	> 100 µg/mL	> 100 µg/mL	11.9 µg/mL (≈ 72 µM)	89.3 µg/mL (≈ 541 µM)	> 100 µg/mL	95 µg/mL (≈ 575 µM)	–	–	–
O=C(/C=C/c1ccccc1)NO	> 100 µg/mL	> 100 µg/mL	6.7 µg/mL (≈ 41.1 µM)	32.4 µg/mL (≈ 199 µM)	28.8 µg/mL (≈ 176 µM)	< 10 µg/mL	40.7 µg/mL (≈ 249 µM)	–	–
O=C(/C=C/c1ccc(C(F)(F)F)cc1)NO	37.2 µg/mL (≈ 161 µM)	6.3 µg/mL (≈ 27.3 µM)	14.1 µg/mL (≈ 61 µM)	> 100 µg/mL	14.4 µg/mL (≈ 62.3 µM)	< 10 µg/mL	> 100 µg/mL	39.6 µg/mL (≈ 171 µM)	21.9 µg/mL (≈ 94.7 µM)
CCCCCCCCc1ccc(/C=C/C=C/C(=O)NO)cc1	> 100 µg/mL	> 100 µg/mL	49.4 µg/mL (≈ 164 µM)	> 100 µg/mL	> 100 µg/mL	< 10 µg/mL	–	–	–
O=C(/C=C/C=C/c1ccc(-c2ccccc2)cc1)NO	31.8 µg/mL (≈ 120 µM)	6.9 µg/mL (≈ 26 µM)	> 100 µg/mL	–	> 100 µg/mL	> 125 µg/mL	–	> 100 µg/mL	7.5 µg/mL (≈ 28.3 µM)
CCCCCC(=O)ONC(=O)/C=C/c1ccc(OC)cc1	63 µg/mL (≈ 216 µM)	> 100 µg/mL	21.2 µg/mL (≈ 72.8 µM)	46.7 µg/mL (≈ 160 µM)	32.8 µg/mL (≈ 113 µM)	> 125 µg/mL	61.4 µg/mL (≈ 211 µM)	76.5 µg/mL (≈ 263 µM)	–
CCCCCCCOc1ccc(/C=C/C=C/C(=O)NO)cc1	> 100 µg/mL	> 100 µg/mL	48.3 µg/mL (≈ 159 µM)	68.3 µg/mL (≈ 225 µM)	> 100 µg/mL	67 µg/mL (≈ 221 µM)	–	–	–
CCCCOc1ccc(/C=C/C=C/C(=O)NO)cc1	27.2 µg/mL (≈ 104 µM)	> 100 µg/mL	> 100 µg/mL	–	38.6 µg/mL (≈ 148 µM)	> 125 µg/mL	> 100 µg/mL	59.3 µg/mL (≈ 227 µM)	–
NNC(=O)/C=C/c1cccc(F)c1	> 100 µg/mL	> 100 µg/mL	41.1 µg/mL (≈ 228 µM)	> 100 µg/mL	65.8 µg/mL (≈ 365 µM)	> 125 µg/mL	> 100 µg/mL	–	–
NNC(=O)/C=C/C=C/c1ccc(F)cc1	> 100 µg/mL	> 100 µg/mL	20.6 µg/mL (≈ 99.9 µM)	> 100 µg/mL	27.4 µg/mL (≈ 133 µM)	> 125 µg/mL	> 100 µg/mL	–	–
CCCCCC(=O)ONC(=O)/C=C/C=C/c1ccc(OC)cc1	> 100 µg/mL	> 100 µg/mL	26.8 µg/mL (≈ 84.4 µM)	54.5 µg/mL (≈ 172 µM)	13.8 µg/mL (≈ 43.5 µM)	< 10 µg/mL	22.9 µg/mL (≈ 72.2 µM)	–	–
NNC(=O)/C=C/C=C/c1ccc(C(F)(F)F)cc1	> 100 µg/mL	5.7 µg/mL (≈ 22.2 µM)	> 100 µg/mL	–	23.7 µg/mL (≈ 92.5 µM)	> 125 µg/mL	> 100 µg/mL	–	19.4 µg/mL (≈ 75.7 µM)
O=C(/C=C/C=C/c1cccc(F)c1)NO	36.8 µg/mL (≈ 178 µM)	6 µg/mL (≈ 29 µM)	7.5 µg/mL (≈ 36.2 µM)	39.3 µg/mL (≈ 190 µM)	7.6 µg/mL (≈ 36.7 µM)	< 10 µg/mL	> 100 µg/mL	> 100 µg/mL	19 µg/mL (≈ 91.7 µM)
CCCCCCCCCCOc1ccc(/C=C/C=C/C(=O)NO)cc1	> 100 µg/mL	> 100 µg/mL	> 100 µg/mL	–	> 100 µg/mL	> 125 µg/mL	–	–	–
NNC(=O)/C=C/c1ccc(F)cc1	> 100 µg/mL	> 100 µg/mL	60.5 µg/mL (≈ 336 µM)	80.4 µg/mL (≈ 446 µM)	> 100 µg/mL	< 10 µg/mL	–	–	–
NNC(=O)/C=C/c1ccc2c(c1)OCO2	> 100 µg/mL	> 100 µg/mL	> 100 µg/mL	–	> 100 µg/mL	123 µg/mL (≈ 597 µM)	–	–	–
